Measurements from patent US20160130278A1 (TAISHO PHARMACEUTICAL CO., LTD, priority 2013, published 2016).

Each molecule was assayed against T1, human type 1 glycine transporter (GlyT1) (Homo sapiens, UniProt P48067) (assay: Glycine uptake inhibition experiment ([3H]glycine uptake)). Details: GlyT1.
T1 construct: T98G cells (glioma cells) expressing human type 1 glycine transporter (GlyT1) were used
T1 sequence (P48067 1-706): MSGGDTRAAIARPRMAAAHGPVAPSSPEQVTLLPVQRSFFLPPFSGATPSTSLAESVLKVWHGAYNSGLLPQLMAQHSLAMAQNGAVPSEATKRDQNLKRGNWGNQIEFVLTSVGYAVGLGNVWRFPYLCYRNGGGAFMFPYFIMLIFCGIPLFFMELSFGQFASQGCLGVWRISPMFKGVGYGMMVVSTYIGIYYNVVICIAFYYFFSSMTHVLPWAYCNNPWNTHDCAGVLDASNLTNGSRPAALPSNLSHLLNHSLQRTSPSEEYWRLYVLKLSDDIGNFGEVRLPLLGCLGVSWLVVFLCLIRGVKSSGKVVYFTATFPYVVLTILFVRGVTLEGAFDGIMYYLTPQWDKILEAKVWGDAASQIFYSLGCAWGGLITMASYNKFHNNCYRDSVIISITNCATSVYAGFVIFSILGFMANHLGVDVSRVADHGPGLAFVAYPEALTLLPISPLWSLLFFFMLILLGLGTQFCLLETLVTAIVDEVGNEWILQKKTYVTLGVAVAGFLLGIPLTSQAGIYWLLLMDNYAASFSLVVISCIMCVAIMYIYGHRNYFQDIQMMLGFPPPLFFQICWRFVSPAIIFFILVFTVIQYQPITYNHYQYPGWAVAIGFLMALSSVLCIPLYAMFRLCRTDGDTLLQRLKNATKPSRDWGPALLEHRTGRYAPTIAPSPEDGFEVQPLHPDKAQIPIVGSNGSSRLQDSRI
Type: cell-based
Procedure, shortened: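 T98G glioma cells expressing human GlyT1 were pretreated 10 min with compound in HEPES buffer pH 7.4 (0.2% BSA), then incubated with compound plus 250 nM final [3H]glycine for 15 min at room temperature. Intracellular radioactivity was counted after NaOH lysis; 10 μM ALX5407 defined non-specific uptake. IC50 came from 10^−9–10^−5 M curves.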

Row | SMILES | IC50 [µM]
1 | O=C(NC(c1ccccc1Cl)[C@]1(O)CC[C@@H](F)CC1)c1cc(C(F)(F)F)ncc1Cl (single isomer, unassigned) [Compound 366, 5-chloro-N-[(2-chlorophenyl)(cis-4-fluoro-1-hydroxycyclohexyl)methyl]-2-(trifluoromethyl)pyridine-4-carboxamide] | 0.32
2 | O=C(NC(c1cccc(Cl)c1Cl)C1(O)CCC(F)(F)CC1)c1nccc(C(F)(F)F)c1Cl (single isomer, unassigned) [Compound 136, 3-chloro-N-[(2,3-dichlorophenyl)(4,4-difluoro-1-hydroxycyclohexyl)methyl]-4-(trifluoromethyl)pyridine-2-carboxamide] | 3.7
3 | CS(=O)(=O)c1ncc(C(F)(F)F)cc1C(=O)NC(c1cccc(F)c1Cl)[C@]1(O)CC[C@@H](F)CC1 (single isomer, unassigned) [Compound 387, N-[(2-chloro-3-fluorophenyl)(cis-4-fluoro-1-hydroxycyclohexyl)methyl]-2-(methylsulfonyl)-5-(trifluoromethyl)pyridine-3-carboxamide] | 0.036
4 | CCn1cc(-c2cccc(C(NC(=O)c3cccc(C(F)(F)F)c3C)C3(O)CCC(F)(F)CC3)c2)cn1 (single isomer, unassigned) [Compound 149, N-{(4,4-difluoro-1-hydroxycyclohexyl)[3-(1-ethyl-1H-pyrazol-4-yl)phenyl]methyl}-2-methyl-3-(trifluoromethyl)benzamide] | 2.6
5 | CN(C)C(=O)c1cccc(C(NC(=O)c2nccc(C(F)(F)F)c2Cl)C2(O)CCCC2)c1 (stereo not shown) [Compound 105, 3-chloro-N-{[3-(dimethylcarbamoyl)phenyl](1-hydroxycyclopentyl)methyl}-4-(trifluoromethyl)pyridine-2-carboxamide] | 1.6
6 | O=C(NC(c1cccc(F)c1Cl)[C@]1(O)CC[C@@H](F)CC1)c1nccc2ccccc12 (single isomer, unassigned) [Compound 255, N-[(2-chloro-3-fluorophenyl)(cis-4-fluoro-1-hydroxycyclohexyl)methyl]isoquinoline-1-carboxamidea] | 0.12
7 | O=C(NC(c1ncccc1Cl)C1(O)CCC(F)(F)CC1)c1nccc(C(F)(F)F)c1Cl (single isomer, unassigned) [Compound 319, 3-chloro-N-[(3-chloropyridin-2-yl)(4,4-difluoro-1-hydroxycyclohexyl)methyl]-4-(trifluoromethyl)pyridine-2-carboxamide] | 1.8
8 | O=C(NC(c1cccc(F)c1Cl)[C@]1(O)CC[C@@H](F)CC1)c1nccc(C(F)(F)F)c1Cl (single isomer, unassigned) [Compound 213, 3-chloro-N-[(2-chloro-3-fluorophenyl)(cis-4-fluoro-1-hydroxycyclohexyl)methyl]-4-(trifluoromethyl)pyridine-2-carboxamide] | 0.037
9 | O=C(NC(c1cc(Cl)ccn1)[C@]1(O)CC[C@@H](F)CC1)c1nccc(C(F)F)c1Cl (single isomer, unassigned) [Compound 332, 3-chloro-N-[(4-chloropyridin-2-yl)(cis-4-fluoro-1-hydroxycyclohexyl)methyl]-4-(difluoromethyl)pyridine-2-carboxamide] | 1.4
10 | O=C(NC(c1cccc(-c2cccnc2)c1)C1(O)CCCCC1)c1nccc(C(F)(F)F)c1Cl (stereo not shown) [Compound 26, 3-chloro-N-{(hydroxycyclohexyl)[3-(pyridin-3-yl)phenyl]methyl}-4-(trifluoromethyl)pyridine-2-carboxamide] | 0.08
11 | CCn1cc(-c2cccc(C(NC(=O)c3cccc(C(F)(F)F)c3C)C3(O)CCC(F)(F)CC3)c2)cn1 (stereo not shown) [Compound 125, N-{(4,4-difluoro-1-hydroxycyclohexyl)[3-(1-ethyl-1H-pyrazol-4-yl)phenyl]methyl}-2-methyl-3-(trifluoromethyl)benzamide] | 0.35
12 | O=C(NC(c1cccnc1)[C@]1(O)CC[C@@H](F)CC1)c1nccc(C(F)(F)F)c1Cl (single isomer, unassigned) [Compound 266, 3-chloro-N-[(cis-4-fluoro-1-hydroxycyclohexyl)(pyridin-3-yl)methyl]-4-(trifluoromethyl)pyridine-2-carboxamide] | 1.6
13 | O=C(NC(c1cccc(-c2cn[nH]c2)c1)C1(O)CCCC1)c1cccc(C(F)(F)F)c1Cl (stereo not shown) [Compound 9, 2-chloro-N-{(1-hydroxycyclopentyl)[3-(1H-pyrazol-4-yl)phenyl]methyl}-3-(trifluoromethyl)benzamide] | 0.11
14 | CCn1cc(-c2cccc(C(NC(=O)c3c(Cl)ccc(C(F)(F)F)c3Cl)C3(O)CCC(F)(F)CC3)c2)cn1 (stereo not shown) [Compound 123, 2,6-dichloro-N-{(4,4-difluoro-1-hydroxycyclohexyl)[3-(1-ethyl-1H-pyrazol-4-yl)phenyl]methyl}-3-(trifluoromethyl)benzamide] | 0.28
15 | O=C(N[C@@H](c1cccc(Br)c1)C1(O)CCCC1)c1nccc(C(F)(F)F)c1-n1ccnn1 [Compound 71, N-[(S)-(3-bromophenyl)(1-hydroxycyclopentyl)methyl]-3-(1H-1,2,3-triazol-1-yl)-4-(trifluoromethyl)pyridine-2-carboxamide] | 5.7
16 | O=C(NC(c1ccc(F)c(Cl)c1)[C@]1(O)CC[C@@H](F)CC1)c1nccc(C(F)(F)F)c1Cl (single isomer, unassigned) [Compound 228, 3-chloro-N-[(3-chloro-4-fluorophenyl)(cis-4-fluoro-1-hydroxycyclohexyl)methyl]-4-(trifluoromethyl)pyridine-2-carboxamide] | 4.2
17 | O=C(NC(c1ccc(F)c(Cl)c1)C1(O)CCCC1)c1nccc(C(F)(F)F)c1Cl (single isomer, unassigned) [Compound 97, 3-chloro-N-[(3-chloro-4-fluorophenyl)(1-hydroxycyclopentyl)methyl]-4-(trifluoromethyl)pyridine-2-carboxamide] | 0.27
18 | O=C(NC(c1cccc(-c2ncccn2)c1)C1(O)CCC(F)(F)CC1)c1nccc(C(F)(F)F)c1Cl (stereo not shown) [Compound 160, 3-chloro-N-{(4,4-difluoro-1-hydroxycyclohexyl)[3-(pyrimidin-2-yl)phenyl]methyl}-4-(trifluoromethyl)pyridine-2-carboxamide] | 0.88
19 | O=C(NC(c1cccc(Cl)n1)C1(O)CCC(F)(F)CC1)c1cc(C(F)(F)F)cnc1Cl (single isomer, unassigned) [Compound 354, 2-chloro-N-[(6-chloropyridin-2-yl)(4,4-difluoro-1-hydroxycyclohexyl)methyl]-5-(trifluoromethyl)pyridine-3-carboxamide] | 0.22
20 | O=C(NC(c1cc(F)ccc1Cl)[C@]1(O)CC[C@@H](F)CC1)c1nccc(C(F)(F)F)c1Cl (single isomer, unassigned) [Compound 374, 3-chloro-N-[(2-chloro-5-fluorophenyl)(cis-4-fluoro-1-hydroxycyclohexyl)methyl]-4-(trifluoromethyl)pyridine-2-carboxamide] | 0.17
21 | O=C(N[C@@H](c1cccc(Br)c1)[C@]1(O)CC[C@H](F)CC1)c1nccc(C(F)(F)F)c1Cl [Compound 102, N-[(S)-(3-bromophenyl)(trans-4-fluoro-1-hydroxycyclohexyl)methyl]-3-chloro-4-(trifluoromethyl)pyridine-2-carboxamide] | 0.15
22 | O=C(NC(c1ccccc1Cl)[C@]1(O)CC[C@@H](F)CC1)c1cc(C(F)(F)F)cnc1Cl (single isomer, unassigned) [Compound 367, 2-chloro-N-[(2-chlorophenyl)(cis-4-fluoro-1-hydroxycyclohexyl)methyl]-5-(trifluoromethyl)pyridine-3-carboxamide] | 0.38
23 | O=C(NC(c1cccc(Cl)n1)C1(O)CCC(F)(F)CC1)c1cc(C(F)(F)F)ncc1Cl (single isomer, unassigned) [Compound 353, 5-chloro-N-[(6-chloropyridin-2-yl)(4,4-difluoro-1-hydroxycyclohexyl)methyl]-2-(trifluoromethyl)pyridine-4-carboxamide] | 0.15

Same assay, conditions: human GlyT1

Row | SMILES | IC50 [µM]
24 | CS(=O)(=O)c1ncc(C(F)(F)F)cc1C(=O)NC(c1ccccc1Cl)C1(O)CCC(F)(F)CC1 (single isomer, unassigned) [Compound 404, N-[(2-chlorophenyl)(4,4-difluoro-1-hydroxycyclohexyl)methyl]-2-(methylsulfonyl)-5-(trifluoromethyl)pyridine-3-carboxamide] | 0.17
25 | CS(=O)(=O)c1cc(C(F)(F)F)ccc1C(=O)NC(c1ccccc1Cl)C1(O)CCC(F)(F)CC1 (single isomer, unassigned) [Compound 405, N-[(2-chlorophenyl)(4,4-difluoro-1-hydroxycyclohexyl)methyl]-2-(methylsulfonyl)-4-(trifluoromethyl)benzamide] | 0.2
